The target in this experiment is T1, POLγA:G848S (Homo sapiens, UniProt P54098, G848S).
T1 sequence (P54098 1-1239 G848S): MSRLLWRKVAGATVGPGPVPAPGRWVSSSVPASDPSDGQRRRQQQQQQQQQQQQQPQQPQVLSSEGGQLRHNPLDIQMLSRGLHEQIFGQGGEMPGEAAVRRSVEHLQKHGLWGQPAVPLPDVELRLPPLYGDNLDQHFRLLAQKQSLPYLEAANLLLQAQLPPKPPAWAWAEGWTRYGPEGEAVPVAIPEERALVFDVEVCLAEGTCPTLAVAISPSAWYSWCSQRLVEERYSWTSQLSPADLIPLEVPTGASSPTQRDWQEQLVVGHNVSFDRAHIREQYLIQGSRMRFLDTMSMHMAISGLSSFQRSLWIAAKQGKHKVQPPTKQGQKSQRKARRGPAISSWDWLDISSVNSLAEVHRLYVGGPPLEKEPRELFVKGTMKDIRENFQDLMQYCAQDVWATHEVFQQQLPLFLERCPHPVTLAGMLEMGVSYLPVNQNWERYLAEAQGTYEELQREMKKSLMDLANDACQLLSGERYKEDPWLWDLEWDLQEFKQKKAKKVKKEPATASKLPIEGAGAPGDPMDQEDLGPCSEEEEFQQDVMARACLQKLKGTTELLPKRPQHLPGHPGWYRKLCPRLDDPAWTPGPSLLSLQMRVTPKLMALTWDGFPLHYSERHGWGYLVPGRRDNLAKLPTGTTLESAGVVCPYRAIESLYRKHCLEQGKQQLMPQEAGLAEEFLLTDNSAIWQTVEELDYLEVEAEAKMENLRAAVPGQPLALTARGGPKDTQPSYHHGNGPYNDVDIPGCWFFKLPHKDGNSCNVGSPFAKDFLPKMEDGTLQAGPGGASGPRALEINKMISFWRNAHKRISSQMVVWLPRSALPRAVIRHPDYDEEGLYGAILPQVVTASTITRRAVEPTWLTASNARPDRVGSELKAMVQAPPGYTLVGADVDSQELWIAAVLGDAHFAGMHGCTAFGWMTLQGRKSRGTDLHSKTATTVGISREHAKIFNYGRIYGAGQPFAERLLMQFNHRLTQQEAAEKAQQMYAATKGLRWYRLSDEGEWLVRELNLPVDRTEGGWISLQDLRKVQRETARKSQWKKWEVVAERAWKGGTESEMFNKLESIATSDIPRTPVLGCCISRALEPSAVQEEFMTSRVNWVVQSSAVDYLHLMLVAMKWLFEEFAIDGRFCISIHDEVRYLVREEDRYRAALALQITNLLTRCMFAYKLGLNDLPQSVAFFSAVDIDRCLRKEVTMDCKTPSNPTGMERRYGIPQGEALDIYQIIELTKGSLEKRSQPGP
T1 sequence (Q9UHN1 1-485 partner): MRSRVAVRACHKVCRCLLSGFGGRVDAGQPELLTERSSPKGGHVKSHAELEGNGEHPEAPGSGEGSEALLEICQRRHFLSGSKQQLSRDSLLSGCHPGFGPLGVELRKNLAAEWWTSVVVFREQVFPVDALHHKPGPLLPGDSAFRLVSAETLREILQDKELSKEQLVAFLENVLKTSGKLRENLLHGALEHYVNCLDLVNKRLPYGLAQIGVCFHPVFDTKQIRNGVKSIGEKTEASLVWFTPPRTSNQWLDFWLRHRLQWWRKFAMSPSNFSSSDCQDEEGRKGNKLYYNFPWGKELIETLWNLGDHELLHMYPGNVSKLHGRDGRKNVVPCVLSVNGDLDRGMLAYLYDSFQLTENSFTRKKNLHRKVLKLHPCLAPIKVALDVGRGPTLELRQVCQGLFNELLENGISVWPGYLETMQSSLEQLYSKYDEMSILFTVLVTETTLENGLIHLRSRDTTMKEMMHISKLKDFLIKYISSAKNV
The experiment is described as follows: DNA polymerization assay, POLγA:G848S mutant. Type of experiment: biochemical. As to conditions: stimulation of polymerase activity, primed M13mp18 ssDNA, 37° C. 2 hours; read-out: G848S AC50. As for the experimental part: DNA Polymerization Assay to Monitor Effects on Human Wildtype POLγ and Four Disease-Causing Mutant Variants of Human POLγ.
The ability of small molecules to stimulate the polymerase activity of POLγ was analyzed in a quantitative fluorescence SYBR Green I assay with fluorescence intensity (FI) readout.
In the presence of dNTPs, wild type human POLγ and mutant derivatives thereof were incubated with single-stranded, circular M13mp18 ssDNA hybridized to a short DNA oligonucleotide that functions as a primer for initiation of DNA synthesis. POLγ and mutant derivatives thereof will extend the primer and use the M13mp18 molecule as a template to synthesize long stretches of double-stranded DNA. SYBR Green I, which is a double-stranded DNA-binding dye, was used to quantify formation of double-stranded DNA in the reaction. When bound to double-stranded DNA, SYBR Green I fluorescence increases by up to 100-fold.
The assay was performed in the 384-well plate format. Upon addition of compounds, changes in double-stranded DNA synthesis activity can be monitored by following effects on fluorescent intensity.
The reactions also contained the accessory POLγB subunit, and the human mitochondrial single-stranded DNA binding protein (mtSSB).
The DNA template mixture used in the assay contained 0.5 nM primed M13 mp18 ssDNA, 400 nM mtSSB, 0.1 mM Tris-HCl (pH 8.0), 0.1 mM dNTP, 10 mM MgCl2, 0.1 mg/mL BSA, 1 mM TCEP solution, and 0.02% Triton X-100. The DNA template mixture for the wild type protein contained either 100 μM dNTP, 1 μM dNTP, or 0.1 μM dNTP, designated in Table 2 as 100 μM, 1 μM, and 0.1 μM, respectfully.
Microplates with compounds (0.1 μL in each well) to be tested in the assay were prepared from 10 mM compound stocks in 100% DMSO, and equal amounts of DMSO without any compound were added to positive and negative control wells.
The protein mixture was dispensed (5 μL into each well) into compound plates and incubated at 37° C. for 15 minutes. After incubation, 5 μL of the DNA template mixture was dispensed into each well. The plates were then incubated at 37° C. for 2 hours.
During incubation, a combined stop buffer and detection reagent solution was prepared. The buffer contained 25 mM EDTA (pH 8.0), 0.02% Triton X-100, and SYBR Green I [Invitrogen] diluted 10,000× (for fluorescent readout). EDTA will stop the enzymatic reaction by chelating magnesium ions.
For `Cc1cc(S(=O)(=O)N[C@H]2CCCN(C(=O)[C@@H]3CCCN3C)C2)c(C)cc1Cl` [Example 101, 4-chloro-2,5-dimethyl-N-((S)-1-(methyl-L-prolyl)piperidin-3-yl)benzenesulfonamide], the AC50 – broadly, the concentration at which the activity in the assay is half-maximal – was greater than 100 µM.

Take `Cc1cnc(-c2ccc(Cl)c(NS(=O)(=O)c3cc(C)c(Cl)cc3C)c2)s1` [Example 102, 4-chloro-N-(2-chloro-5-(5-methylthiazol-2-yl)phenyl)-2,5-dimethylbenzenesulfonamide]: the AC50 was determined as 0.4 µM.

In the case of `Cc1cnc(-c2cc(NS(=O)(=O)c3cc(C)c(Cl)cc3C)ccc2C)s1` [Example 103, 4-chloro-2,5-dimethyl-N-(4-methyl-3-(5-methylthiazol-2-yl)phenyl)benzenesulfonamide], the AC50 amounted to 9 µM.

With `Cc1cc(S(=O)(=O)N[C@@H]2CCCN(C(=O)[C@@H]3CCCN3C)C2)c(C)cc1Cl` [Example 104, 4-chloro-2,5-dimethyl-N-((R)-1-(methyl-L-prolyl)piperidin-3-yl)benzenesulfonamide], the AC50 stood at 47 µM.

Consider `Cc1cc(S(=O)(=O)Nc2cccc(C(=O)N3CCCC4(CC4)C3)c2)c(C)cc1Cl` [Example 105, N-(3-(5-azaspiro[2.5]octane-5-carbonyl)phenyl)-4-chloro-2,5-dimethylbenzenesulfonamide], for which the AC50 was found to be 9 µM.

Consider `Cc1cc(S(=O)(=O)Nc2cccc(C(=O)N3CCCOC(C)(C)C3)c2)c(C)cc1Cl` [Example 106, 4-chloro-N-(3-(2,2-dimethyl-1,4-oxazepane-4-carbonyl)phenyl)-2,5-dimethylbenzenesulfonamide], for which the AC50 is greater than 100 µM.

As to `Cc1cc(S(=O)(=O)Nc2cccc(C(=O)N3CCc4cn[nH]c4C3)c2)c(C)cc1Cl` [Example 107, 4-chloro-2,5-dimethyl-N-(3-(4,5,6,7-tetrahydro-1H-pyrazolo[3,4-c]pyridine-6-carbonyl)phenyl)benzenesulfonamide], the AC50 amounted to 7 µM.

Turning to `Cc1cc(S(=O)(=O)Nc2cccc(C(=O)N3C[C@H](C)[C@@H](N)C3)c2)c(C)cc1Cl` [Example 108, N-(3-((3R,4S)-3-amino-4-methylpyrrolidine-1-carbonyl)phenyl)-4-chloro-2,5-dimethylbenzenesulfonamide], the AC50 is greater than 100 µM.

Turning to `Cc1cc(S(=O)(=O)Nc2cccc(C(=O)N(C)c3ccccn3)c2)c(C)cc1Cl` [Example 109, 3-((4-chloro-2,5-dimethylphenyl)sulfonamido)-N-methyl-N-(pyridin-2-yl)benzamide], the AC50 is greater than 100 µM.

As for `Cc1cc(NS(=O)(=O)c2cc(C)c(Cl)cc2C)cc(-c2ncc(C)s2)c1` [Example 110, 4-chloro-2,5-dimethyl-N-(3-methyl-5-(5-methylthiazol-2-yl)phenyl)benzenesulfonamide], the AC50 was greater than 100 µM.

For the compound `Cc1cnc(-c2cc(NS(=O)(=O)c3cc(C)c(Cl)cc3C)ccc2Cl)s1` [Example 111, 4-chloro-N-(4-chloro-3-(5-methylthiazol-2-yl)phenyl)-2,5-dimethylbenzenesulfonamide], the AC50 is greater than 100 µM.

For the compound `Cc1cc(S(=O)(=O)Nc2cccc(C(=O)N(C(C)C)C3COC3)c2)c(C)cc1Cl` [Example 112, 3-((4-chloro-2,5-dimethylphenyl)sulfonamido)-N-isopropyl-N-(oxetan-3-yl)benzamide], the AC50 is 40 µM.

Regarding `Cc1cc(S(=O)(=O)Nc2cccc(C(=O)N(CC(N)=O)C3CCCC3)c2)c(C)cc1Cl` [Example 113, N-(2-amino-2-oxoethyl)-3-((4-chloro-2,5-dimethylphenyl)sulfonamido)-N-cyclopentylbenzamide], the AC50 was found to be 11 µM.

Regarding `Cc1cc(S(=O)(=O)Nc2cccc(C(=O)N3CCc4ncnc(C)c4C3)c2)c(C)cc1Cl` [Example 114, 4-chloro-2,5-dimethyl-N-(3-(4-methyl-5,6,7,8-tetrahydropyrido [4,3-d]pyrimidine-6-carbonyl)phenyl)benzenesulfonamide], the AC50 worked out at 50 µM.

Turning to `Cc1cc(S(=O)(=O)Nc2cccc(C(=O)N3C[C@@H](F)C[C@H](F)C3)c2)c(C)cc1Cl` [Example 115, 4-chloro-N-(3-((3S,5S)-3,5-difluoropiperidine-1-carbonyl)phenyl)-2,5-dimethylbenzenesulfonamide], the AC50 was greater than 100 µM.

Take `Cc1cc(Cl)ccc1S(=O)(=O)Nc1cccc(C(=O)N2CCC[C@H]2C)c1` [Example 116, (R)-4-chloro-2-methyl-N-(3-(2-methylpyrrolidine-1-carbonyl)phenyl)benzenesulfonamide]: the AC50 came to 9 µM.

For the compound `Cc1cc(S(=O)(=O)Nc2cccc(C(=O)N3CCC[C@H]3C)c2)ccc1Cl` [Example 117, (R)-4-chloro-3-methyl-N-(3-(2-methylpyrrolidine-1-carbonyl)phenyl)benzenesulfonamide], the AC50 was greater than 100 µM.

As for `C[C@@H]1CCCN1C(=O)c1cccc(NS(=O)(=O)c2ccc(C(F)(F)F)cc2)c1` [Example 118, (R)-N-(3-(2-methylpyrrolidine-1-carbonyl)phenyl)-4-(trifluoromethyl)benzenesulfonamide], the AC50 is greater than 100 µM.

Take `Cc1cc(S(=O)(=O)Nc2cccc(C(=O)N3CCCC3)c2)c(C)cc1Cl` [Example 119, 4-chloro-2,5-dimethyl-N-(3-(pyrrolidine-1-carbonyl)phenyl) benzenesulfonamide]: the AC50 was 2 µM.

Take `O=S(=O)(Nc1csc(-c2ccccc2)n1)c1ccc(Cl)cc1` [Example 120, 4-chloro-N-(2-phenylthiazol-4-yl)benzenesulfonamide]: the AC50 is greater than 100 µM.

`O=S(=O)(Nc1csc(-c2ccccc2)n1)c1cccnc1` [Example 121, N-(2-phenylthiazol-4-yl)pyridine-3-sulfonamide]: the AC50 was greater than 100 µM.

For `O=S(=O)(Nc1csc(-c2ccccc2)n1)c1ccc(F)c(F)c1` [Example 122, 3,4-difluoro-N-(2-phenylthiazol-4-yl)benzenesulfonamide], the AC50 was greater than 100 µM.

The values above are taken from patent US20260138961A1, “MODULATORS OF MITOCHONDRIAL DNA REPLICATION” (Pretzel Therapeutics, Inc., priority 2022, published 2026).
